11 compounds from patent publication US11427548B2 (Arvinas Operations, Inc., priority 2015, dated 2022) can be followed below.

One may read the DC50 as the midpoint of the concentration-degradation curve. Usually Dmax stands for the largest share of the target that was removed.

The target of this experiment is T1, Androgen Receptor (Homo sapiens, UniProt P10275).
T1 construct: endogenous in cells; host or cells: VCaP cells
T1 sequence (P10275 1-920): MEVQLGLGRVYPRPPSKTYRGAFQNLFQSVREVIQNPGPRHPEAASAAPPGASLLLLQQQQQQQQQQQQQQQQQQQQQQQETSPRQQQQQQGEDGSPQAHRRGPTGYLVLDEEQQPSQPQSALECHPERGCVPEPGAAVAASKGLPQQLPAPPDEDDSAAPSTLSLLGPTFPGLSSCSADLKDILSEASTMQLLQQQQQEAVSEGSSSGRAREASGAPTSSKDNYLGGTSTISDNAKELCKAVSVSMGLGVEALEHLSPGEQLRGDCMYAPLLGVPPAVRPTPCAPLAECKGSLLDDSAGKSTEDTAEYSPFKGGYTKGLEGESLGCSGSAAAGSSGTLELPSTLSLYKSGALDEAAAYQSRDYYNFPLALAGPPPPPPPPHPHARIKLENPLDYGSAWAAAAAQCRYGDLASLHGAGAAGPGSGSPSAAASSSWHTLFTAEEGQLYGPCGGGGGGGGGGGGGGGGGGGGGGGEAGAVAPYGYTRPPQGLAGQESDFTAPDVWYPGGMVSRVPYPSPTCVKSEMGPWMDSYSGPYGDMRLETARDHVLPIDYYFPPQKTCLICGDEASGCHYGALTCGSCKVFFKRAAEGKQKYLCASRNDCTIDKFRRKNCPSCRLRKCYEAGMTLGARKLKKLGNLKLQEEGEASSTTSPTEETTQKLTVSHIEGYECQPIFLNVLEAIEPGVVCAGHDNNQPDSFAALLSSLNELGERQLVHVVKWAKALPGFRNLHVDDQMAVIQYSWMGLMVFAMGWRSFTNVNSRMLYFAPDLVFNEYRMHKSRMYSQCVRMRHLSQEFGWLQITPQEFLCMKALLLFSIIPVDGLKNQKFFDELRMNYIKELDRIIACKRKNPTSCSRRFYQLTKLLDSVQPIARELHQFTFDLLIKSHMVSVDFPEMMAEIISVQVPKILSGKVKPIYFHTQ
Nature of the experiment: Androgen Receptor ELISA assay (PathScan AR ELISA) in VCaP cells: AR degradation, Dmax and DC50. The experiment is classed as cell-based. As to conditions: VCaP cells, Table 36; for DC50: read-out: VCaP DC50; for Dmax: VCaP, read-out: VCaP Dmax (%). In short, it runs like this: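 After 24 h exposure of VCaP cells (charcoal-stripped serum, 0.1 nM R1881 agonist, 0.1% DMSO) to seven half-log compound concentrations, residual AR in lysates was measured by PathScan ELISA (TMB absorbance, 450 nm). Cells were plated at 30,000/well and grown at least 3 days beforehand.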

Turning to `Cc1ncsc1-c1ccc([C@H](C)NC(=O)C2C[C@@H](O)CN2C(=O)[C@@H](NC(=O)COCCN2[C@H](C)CN(c3ccc(C(=O)N[C@H]4C(C)(C)[C@H](Oc5ccc(C#N)c(Cl)c5)C4(C)C)cn3)C[C@@H]2C)C(C)(C)C)cc1` (stereo partly drawn) [Example 786, N-((1r,3R)-3-(3-chloro-4-cyanophenoxy)-2,2,4,4-tetramethylcyclobutyl)-6-((3S,5R)-4-(2-(2-(((2S)-1-((4R)-4-hydroxy-2-(((S)-1-(4-(4-methylthiazol-5-yl)phenyl)ethyl)carbamoyl)pyrrolidin-1-yl)-3,3-dimethyl-1-oxobutan-2-yl)amino)-2-oxoethoxy)ethyl)-3,5-dimethylpiperazin-1-yl)nicotinamide], the 50% degradation concentration (DC50) is under 50 nM and the Dmax is over 71%.

Turning to `Cc1ncsc1-c1ccc([C@H](C)NC(=O)C2C[C@@H](O)CN2C(=O)[C@@H](NC(=O)COCCN2C3CCC2CN(c2ccc(C(=O)NC4C(C)(C)C(Oc5ccc(C#N)c(Cl)c5)C4(C)C)cn2)C3)C(C)(C)C)cc1` (stereo partly drawn) [Example 787, N-((1r,3r)-3-(3-chloro-4-cyanophenoxy)-2,2,4,4-tetramethylcyclobutyl)-6-(8-(2-(2-(((2S)-1-((4R)-4-hydroxy-2-(((S)-1-(4-(4-methylthiazol-5-yl)phenyl)ethyl)carbamoyl)pyrrolidin-1-yl)-3,3-dimethyl-1-oxobutan-2-yl)amino)-2-oxoethoxy)ethyl)-3,8-diazabicyclo[3.2.1]octan-3-yl)nicotinamide], the “VCaP Dmax (%)” value was “++++ (71% ≤ Dmax)” and the 50% degradation concentration (DC50) is under 50 nM.

For the compound `Cc1ncsc1-c1ccc([C@H](C)NC(=O)C2C[C@@H](O)CN2C(=O)[C@@H](NC(=O)COCCN2CCN(c3ccc(C(=O)N[C@H]4C(C)(C)[C@H](Oc5ccc(C#N)c(Cl)c5)C4(C)C)cn3)C[C@H]2CO)C(C)(C)C)cc1` (stereo partly drawn) [Example 788, N-((1r,3S)-3-(3-chloro-4-cyanophenoxy)-2,2,4,4-tetramethylcyclobutyl)-6-((3S)-4-(2-(2-(((2S)-1-((4R)-4-hydroxy-2-(((S)-1-(4-(4-methylthiazol-5-yl)phenyl)ethyl)carbamoyl)pyrrolidin-1-yl)-3,3-dimethyl-1-oxobutan-2-yl)amino)-2-oxoethoxy)ethyl)-3-(hydroxymethyl)piperazin-1-yl)nicotinamide], the 50% degradation concentration (DC50) is under 50 nM and the maximal degradation (Dmax) was over 71%.

Turning to `Cc1ncsc1-c1ccc([C@H](C)NC(=O)C2C[C@@H](O)CN2C(=O)C(NC(=O)CN2CCN(CCN3CCN(c4ccc(C(=O)N[C@H]5C(C)(C)[C@H](Oc6ccc(C#N)c(Cl)c6)C5(C)C)cn4)CC3)CC2)C(C)(C)C)cc1` (stereo partly drawn) [Example 789, N-((1r,3r)-3-(3-chloro-4-cyanophenoxy)-2,2,4,4-tetramethylcyclobutyl)-6-(4-(2-(4-(2-(((S)-1-((2S,4R)-4-hydroxy-2-(((S)-1-(4-(4-methylthiazol-5-yl)phenyl)ethyl)carbamoyl)pyrrolidin-1-yl)-3,3-dimethyl-1-oxobutan-2-yl)amino)-2-oxoethyl)piperazin-1-yl)ethyl)piperazin-1-yl)nicotinamide], the DC50 is under 50 nM and the Dmax was over 71%.

As for `Cc1ncsc1-c1ccc([C@H](C)NC(=O)[C@@H]2C[C@@H](O)CN2C(=O)[C@@H](NC(=O)COCCN2CCN(Cc3cc(C(=O)N[C@@H](C)Cn4ccc(-c5ccc(C#N)c(Cl)c5)n4)n[nH]3)CC2)C(C)(C)C)cc1` [Example 790, N-((S)-1-(3-(3-chloro-4-cyanophenyl)-1H-pyrazol-1-yl)propan-2-yl)-5-((4-(2-(2-(((S)-1-((2S,4R)-4-hydroxy-2-(((S)-1-(4-(4-methylthiazol-5-yl)phenyl)ethyl)carbamoyl)pyrrolidin-1-yl)-3,3-dimethyl-1-oxobutan-2-yl)amino)-2-oxoethoxy)ethyl)piperazin-1-yl)methyl)-1H-pyrazole-3-carboxamide], the 50% degradation concentration (DC50) is over 501 nM and the Dmax was in the range of 26 to 50%.

Regarding `Cc1ncsc1-c1ccc([C@H](C)NC(=O)[C@@H]2C[C@@H](O)CN2C(=O)C(NC(=O)CO[C@H]2CCCC[C@@H]2N2CCN(CCOc3ccc(C(=O)N[C@H]4C(C)(C)[C@H](Oc5ccc(C#N)c(Cl)c5)C4(C)C)cc3)CC2)C(C)(C)C)cc1` (stereo partly drawn) [Example 791, (2S,4R)-1-((S)-2-(2-(((1S,2S)-2-(4-(2-(4-(((1r,3r)-3-(3-chloro-4-cyanophenoxy)-2,2,4,4-tetramethylcyclobutyl)carbamoyl)phenoxy)ethyl)piperazin-1-yl)cyclohexyl)oxy)acetamido)-3,3-dimethylbutanoyl)-4-hydroxy-N-((S)-1-(4-(4-methylthiazol-5-yl)phenyl)ethyl)pyrrolidine-2-carboxamide], the 50% degradation concentration (DC50) is over 501 nM and the maximal degradation (Dmax) is under 25%.

As for `Cc1ncsc1-c1ccc([C@H](C)NC(=O)[C@@H]2C[C@@H](O)CN2C(=O)C(NC(=O)CO[C@@H]2CCCC[C@H]2N2CCN(CCOc3ccc(C(=O)N[C@H]4C(C)(C)[C@H](Oc5ccc(C#N)c(Cl)c5)C4(C)C)cc3)CC2)C(C)(C)C)cc1` (stereo partly drawn) [Example 792, (2S,4R)-1-((S)-2-(2-(((1R,2R)-2-(4-(2-(4-(((1r,3r)-3-(3-chloro-4-cyanophenoxy)-2,2,4,4-tetramethylcyclobutyl)carbamoyl)phenoxy)ethyl)piperazin-1-yl)cyclohexyl)oxy)acetamido)-3,3-dimethylbutanoyl)-4-hydroxy-N-((S)-1-(4-(4-methylthiazol-5-yl)phenyl)ethyl)pyrrolidine-2-carboxamide], the half-maximal degradation concentration (DC50) was over 501 nM and the Dmax lay in the range of 26 to 50%.

For `COc1cc(-c2scnc2C)ccc1CNC(=O)C1C[C@@H](O)CN1C(=O)[C@@H](NC(=O)COCCN1CCN(c2ccc(C(=O)N[C@H]3C(C)(C)[C@H](Oc4ccc(C#N)c(Cl)c4)C3(C)C)cn2)CC1)C(C)(C)C` (stereo partly drawn) [Example 793, N-((1r,3r)-3-(3-chloro-4-cyanophenoxy)-2,2,4,4-tetramethylcyclobutyl)-6-(4-(2-(2-(((S)-1-((2S,4R)-4-hydroxy-2-((2-methoxy-4-(4-methylthiazol-5-yl)benzyl)carbamoyl)pyrrolidin-1-yl)-3,3-dimethyl-1-oxobutan-2-yl)amino)-2-oxoethoxy)ethyl)piperazin-1-yl)nicotinamide], the half-maximal degradation concentration (DC50) was under 50 nM and the maximal degradation (Dmax) was over 71%.

Turning to `Cc1ncsc1-c1ccc([C@H](C)NC(=O)[C@@H]2C[C@@H](O)CN2C(=O)[C@@H](NC(=O)CN2CC(N3CCN(c4ccc(C(=O)N[C@H]5C(C)(C)[C@H](Oc6ccc(C#N)c(Cl)c6)C5(C)C)cn4)CC3)C2)C(C)(C)C)cc1` [Example 794, N-((1r,3r)-3-(3-chloro-4-cyanophenoxy)-2,2,4,4-tetramethylcyclobutyl)-6-(4-(1-(2-(((S)-1-((2S,4R)-4-hydroxy-2-(((S)-1-(4-(4-methylthiazol-5-yl)phenyl)ethyl)carbamoyl)pyrrolidin-1-yl)-3,3-dimethyl-1-oxobutan-2-yl)amino)-2-oxoethyl)azetidin-3-yl)piperazin-1-yl)nicotinamide], the DC50 was under 50 nM and the Dmax is 51 to 70%.

For `Cc1ncsc1-c1ccc([C@H](C)NC(=O)[C@@H]2C[C@@H](O)CN2C(=O)[C@@H](NC(=O)CN2CCN(C3CN(c4ccc(C(=O)N[C@H]5C(C)(C)[C@H](Oc6ccc(C#N)c(Cl)c6)C5(C)C)cn4)C3)CC2)C(C)(C)C)cc1` [Example 795, N-((1r,3r)-3-(3-chloro-4-cyanophenoxy)-2,2,4,4-tetramethylcyclobutyl)-6-(3-(4-(2-(((S)-1-((2S,4R)-4-hydroxy-2-(((S)-1-(4-(4-methylthiazol-5-yl)phenyl)ethyl)carbamoyl)pyrrolidin-1-yl)-3,3-dimethyl-1-oxobutan-2-yl)amino)-2-oxoethyl)piperazin-1-yl)azetidin-1-yl)nicotinamide], the DC50 is under 50 nM and the Dmax is over 71%.

For the compound `Cc1ncsc1-c1ccc([C@H](C)NC(=O)[C@@H]2C[C@@H](O)CN2C(=O)[C@H](c2cc(N3CCN(CCCc4ccc(C(=O)N[C@H]5C(C)(C)[C@H](Oc6ccc(C#N)c(Cl)c6)C5(C)C)cc4)CC3)no2)C(C)C)cc1` [Example 796, (2S,4R)-1-((S)-2-(3-(4-(3-(4-(((1r,3r)-3-(3-chloro-4-cyanophenoxy)-2,2,4,4-tetramethylcyclobutyl)carbamoyl)phenyl)propyl)piperazin-1-yl)isoxazol-5-yl)-3-methylbutanoyl)-4-hydroxy-N-((S)-1-(4-(4-methylthiazol-5-yl)phenyl)ethyl)pyrrolidine-2-carboxamide], the 50% degradation concentration (DC50) is over 501 nM and the Dmax lay within 26 to 50%.
